Data published in patent US10053502B2, “Selective inhibitors of c-Fos and their antiproliferative properties” (INSERM (INSTITUT NATIONAL DE LA SANTÉ ET DE LA RECHERCHE …, priority 2014, dated 2018).
Where two headings read alike, the source gives them in different places. Residues, ends and D or L forms follow the SMILES beside them.

Tests used:
[1] = system: human coronary arterial endothelial cells (HCAEC); test: Serum-induced proliferation of HCAEC, BrdU incorporation; type: cell-based; details: 10% serum, peptide 3-12 μM, U0126 10 μM, Paclitaxel 10 nM, VIVIT 100 μM
Description: Using the same protocol than in FIG. 3, cells were grown in the presence of 10% serum after withdrawal. The peptide TAT-DEF-c-Fos was applied at a single dose one day after withdrawal. Proliferation was tested using a BrdU assay; n=3; One-way ANOVA; Dunett post hoc test; * p<0.05; when compared to the group treated with 10% serum
Primary human coronary arterial endothelial cells (HCAEC) (Promocell C12222) were grown in Endothelial Cell Growth Medium MV2 (Promocell).
(§1) 10 000 cells per well were grown in the presence of complete medium. After one cycle of cell division (around 32 hours for HCAEC and vSMC, 24 hours for NIH3T3), the cells were starved for one other cycle (0.1% serum or nutriment supplement for HCAEC). […] Proliferation was analyzed after BrdU incorporation, which allows the visualization of cells under division. For HCAEC and vSMC, BrdU was added with inhibitor. For NIH3T3, it was added only during the last three hours. Cells were fixed in 4% paraformaldehyde.
(§2) Only the nuclei with an intact nucleus were taken into account. Image-Pro Plus software (Media Cybernetics) was used in order to quantify BrdU positive cells. The percentage of positive cells was reported to the total number of Hoechst-positive cells.

[2] = system: vSMC; test: Wound healing assay (invasiveness) in vSMC; type: cell-based, human; details: 24 to 72 hours, U0126 10 μM, Paclitaxel 10 nM, 10% serum
Description: The peptide was applied once, at the same time as 10% serum. The invasiveness was calculated as the percentage of cells over the size of the lesion, 24, 48 and 72 hours post-lesion.
Cells were cultured in 24-well plates as a confluent monolayer (30000 cells plated per well). […] Cells were fixed in 4% paraformaldehyde then stained with cresyl violet dye (1% in methanol). Pictures were taken to visualize the marked wound location. The wound healing effect was measured using the NIH ImageJ program and expressed as percentage of recovery of the lesion.
Invasive properties were studied using the wound healing protocol.
The percentage of lesion recovery was measured after cresyl violet staining of vSMC cells (FIG. 8).

[3] = system: sNF96.2 (MPNST cell line); type: cell-based, human; details: MTT, 96 hours; for anti-proliferative properties on MPNST (words): 2 to 100 μM
Description: The inventors have further tested 4 different peptides in the Peripheral Nerve Sheath Tumors (MPNST) cell lines sNF96.2, which was deposited to the ATCC under the reference ATCC® CRL-2884™.
Cells were cultured at DayO in a complete medium (DMEM with 10% of fetal bovine serum). Then they were deprived at Day2 (24 hours in a medium comprising DMEM with 0.1% fetal bovine serum followed by 24 hours in DMEM alone).
At Day 4, the cells were incubated with a dose escalation regimen of pepsignal peptides from 2 to 100 μM.
The proliferation tests were carried out 96 hours later.
Proliferation was analysed by a MTT assay. The MTT assay is a colorimetric assay for assessing cell viability. The viability is measured by the metabolic activity if the cells, which is determined by the activity of a mitochondrial succinate dehydrogenate. Typically, the cell media goes from yellow to blue and the intensity of the coloration is proportional to the number of viable cells. Coloration is determined by […] at 570 nm.
The inventors performed three independent experiments, each point being performed in duplicate for each experiment.

[4] = system: vascular smooth muscle cells (vSMC); test: Serum-induced proliferation of vSMC, BrdU incorporation; type: cell-based, human; details: 3, 6 and 12 μM, 10% serum
Description: On day one, 10 000 cells per well were grown in the presence of 10% serum. […] On the bases of our previous results in neuronal cells (see Lavaur et al., 2007) three different doses of pepsignal were tested: from 3 to 12 μM.
Using the same protocol as in FIG. 3, cells were grown in the presence of 10% FBS (serum) after withdrawal. The peptide TAT-DEF-c-Fos was applied once (6 or 12 μM) on day one (first day after withdrawal) and proliferation was tested using a BrdU assay 24, 48 or 72 hours later. When indicated, multiple applications of the peptide were done (“m”) every 24 hours. Note that the TAT-DEF-c-Fos12 μM is not reported herein; n=3; Two-way ANOVA; Bonferroni post hoc test; *** p<0.001 when compared to the group treated with 10% serum.
Primary vascular smooth muscle cells (vSMC) (ATCC CRL-1999) were grown in DMEM F12K medium supplemented 0.05 mg/ml ascorbic acid; 0.01 mg/ml insulin; 0.01 mg/ml transferrin; 10 ng/ml sodium selenite; 10% (v/v) heat-inactivated FBS (Fetal Bovine Serum), 100 U/ml penicillin, and 100 μg/ml streptomycin, 10 mM HEPES.
10 000 cells per well were grown in the presence of complete medium. […] Proliferation was analyzed after BrdU incorporation, which allows the visualization of cells under division. […]
Only the nuclei with an intact nucleus were taken into account. Image-Pro Plus software (Media Cybernetics) was used in order to quantify BrdU positive cells. […]

[5] = system: NIH3T3 cells; test: Serum-induced proliferation of NIH3T3 fibroblasts, BrdU incorporation; type: cell-based, mouse; details: 10% serum; BrdU 3 h; peptide 1 to 12 μM, U0126 10 μM
Description: On day one, 10 000 cells per well were grown in the presence of 10% serum.
NIH 3T3 mouse embryonic fibroblast cells were grown in DMEM supplemented with 10% (v/v) heat-inactivated FBS, 100 U/ml penicillin, and 100 μg/ml streptomycin.
as §1, §2

[6] = system: malignant peripheral nerve sheat tumors (MPNST) from NF1 patients; test: Proliferation of MPNST cell lines from NF1 patients; type: cell-based; details: Homo sapiens, read-out: IC50, inhibition of proliferation of MPNST, 15% serum, control
Description: Human cell lines from malignant peripheral nerve sheat tumors (MPNST) were treated with either TAT-DEF-c-Fos at increasing doses, or as a control, with Rapamycin, an inhibitor of the mTOR pathway that is classically used as an inhibitor of proliferation on this cell line. The TAT-DEF-c-Fos peptide inhibited proliferation of MPNST at very low doses when compared to Rapamycin (IC50 for TAT-DEF-c-Fos around 10 μM instead of 10 mM for Rapamycin).
Malignant Peripheral Nerve Sheath Tumors (MPNST: from NF1 patients) were obtained from Michel Videaud's laboratory. 2000 cells were grown in the presence of 15% serum after withdrawal.
The inventors tested the efficacy of TAT-DEF-c-Fos on malignant NF1 cell proliferation (FIG. 9). For this purpose, the inventors used Human cell lines from malignant peripheral nerve sheat tumors (MPNST) from NF1 patients.
The MPNST cell lines were derived from a recurrent mass associated with peripheral nerve sheat and diagnosed as MPNST (Malignant Peripheral Nerve Sheath Tumor) in patients meeting NF1 diagnostic criteria.

Compound | inhibition of HCAEC cell proliferation [1] | effect on vSMC invasiveness (wound healing) [2] | anti-proliferative properties on MPNST (words) [3] | inhibition of NIH3T3 fibroblast proliferation [5] | also measured
CC(=O)O[C@H]1C(=O)[C@@]2(C)[C@H]([C@H](OC(=O)c3ccccc3)[C@]3(O)C[C@H](OC(=O)[C@H](O)[C@@H](NC(=O)c4ccccc4)c4ccccc4)C(C)=C1C3(C)C)[C@]1(OC(C)=O)CO[C@@H]1C[C@@H]2O [Paclitaxel] | efficient | significant but transient effect | – | – | –
CC[C@H](C)[C@H](NC(=O)[C@H](CCCCN)NC(=O)[C@@H](NC(=O)[C@H](CCC(N)=O)NC(=O)[C@@H](N)CCCNC(=N)N)[C@@H](C)CC)C(=O)N[C@@H](Cc1c[nH]c2ccccc12)C(=O)N[C@@H](Cc1ccccc1)C(=O)N[C@@H](Cc1c[nH]c2ccccc12)C(=O)N[C@@H](CC(N)=O)C(=O)N[C@@H](CCCNC(=N)N)C(=O)N[C@@H](CCCNC(=N)N)C(=O)N[C@@H](CCSC)C(=O)N[C@@H](CCCCN)C(=O)N[C@@H](Cc1c[nH]c2ccccc12)C(=O)N[C@@H](CCCCN)C(=O)N[C@@H](CCCCN)C(=O)N1CCC[C@H]1C(=O)N1CCC[C@H]1C(=O)N[C@@H](CS)C(=O)N[C@H](C(=O)N[C@H](C(=O)N[C@@H](Cc1ccc(O)cc1)C(=O)N[C@H](C(=O)N[C@@H](CO)C(=O)N[C@@H](CO)C(=O)N[C@@H](Cc1ccccc1)C(=O)N[C@H](C(=O)N[C@@H](Cc1ccccc1)C(=O)N[C@H](C(=O)N[C@@H](Cc1ccc(O)cc1)C(=O)N1CCC[C@H]1C(=O)N[C@@H](CCC(=O)O)C(=O)N[C@@H](C)C(=O)N[C@@H](CC(=O)O)C(=O)N[C@@H](CO)C(=O)N[C@@H](Cc1ccccc1)C(=O)N1CCC[C@H]1C(=O)N[C@@H](CO)C(=O)O)[C@@H](C)O)C(C)C)[C@@H](C)O)[C@@H](C)O)[C@@H](C)O [Penetratin-DEF-c-Fos] (H-RQIKIWFWNRRMKWKKPPCTTYTSSFVFTYPEADSFPS-OH; N-terminus and C-terminus assumed) | – | – | lower efficacy than the TAT-DEF-c-Fos peptide | – | inhibition of proliferation of sNF96.2 ([3]; 100 μM): ~66%
CC[C@H](C)[C@H](NC(=O)[C@H](Cc1c[nH]cn1)NC(=O)[C@@H](NC(=O)[C@H](CCC(N)=O)NC(=O)[C@H](C)NC(=O)[C@H](CO)NC(=O)CNC(=O)[C@H](CO)NC(=O)[C@H](CO)NC(=O)[C@@H]1CCCN1C(=O)[C@H](Cc1ccccc1)NC(=O)[C@H](CCC(N)=O)NC(=O)[C@H](Cc1ccccc1)NC(=O)[C@H](CO)NC(=O)[C@H](CC(C)C)NC(=O)[C@H](CCCCN)NC(=O)[C@H](C)NC(=O)[C@@H]1CCCN1C(=O)[C@H](CO)NC(=O)[C@@H]1CCCN1C(=O)[C@@H]1CCCN1C(=O)[C@H](CCCNC(=N)N)NC(=O)[C@H](CCCNC(=N)N)NC(=O)[C@H](CCCNC(=N)N)NC(=O)[C@H](CCC(N)=O)NC(=O)[C@H](CCCNC(=N)N)NC(=O)[C@H](CCCNC(=N)N)NC(=O)[C@H](CCCCN)NC(=O)[C@H](CCCCN)NC(=O)[C@H](CCCNC(=N)N)NC(=O)CN)C(C)C)C(=O)O [TAT-DEF-Elk-1] (H-GRKKRRQRRRPPSPAKLSFQFPSSGSAQVHI-OH; N-terminus and C-terminus assumed) | no effect | – | slight inhibitory effect | no effect | anti-proliferative properties on MPNST (words) ([3]; listed as TAT-DEF-Elk1): low anti-proliferative properties; inhibition of proliferation of sNF96.2, maximum reached ([3]; even at higher doses (up to 100 μM)): < 50%; anti-proliferative properties on vSMC (serum-induced proliferation) [4]: not and no effect
TAT-DEF-JunB: SEQ ID NO: 37 GRKKRRQRRRPPTTPTPPGQYFYPRGGGSGGGAG (pepsignal) | – | – | lower efficacy than the TAT-DEF-c-Fos peptide | – | –
N#CC(=C(/N)Sc1ccccc1N)/C(C#N)=C(\N)Sc1ccccc1N [Peptide U0126, U0126] | efficient | lack of effect | – | failed to inhibit proliferation | effect on vSMC invasiveness (wound healing) ([2]; listed as classical MEK inhibitor): failed to block invasiveness
CO[C@H]1C[C@@H]2CC[C@@H](C)[C@@](O)(O2)C(=O)C(=O)N2CCCC[C@H]2C(=O)O[C@H]([C@H](C)C[C@@H]2CC[C@@H](O)[C@H](OC)C2)CC(=O)[C@H](C)/C=C(\C)[C@@H](O)[C@@H](OC)C(=O)[C@H](C)C[C@H](C)/C=C/C=C/C=C/1C [Rapamycin] | – | – | – | – | IC50 [6]: ~10 mM
